Experiments:
[1] = system: IL-1α; test: Release of IL-1α from calcipotriol ointment containing glycerol; conditions: 5%, 10%, 15% by weight of glycerol in a calcipotriol ointment
[2] = system: gene encoding cathelicidin; test: Cathelicidin target gene activation assay on reconstructed human epidermis; assay type: cell-based; conditions: 5%, 10% or 15% by weight of glycerol in the composition
Excerpt: In psoriasis, the level of cathelicidin is increased in lesional skin of psoriasis patients. […] This finding has been utilized to develop an assay in which the uptake and biological activity of calcipotriol in human keratinocytes from the tested compositions has been determined by measuring the level of induction of the gene encoding cathelicidin.
In the assay, compositions A, B, C, F, G, I, J, K, L prepared as described in Example 1 above were applied topically in triplicate on reconstructed human epidermis consisting of normal human keratinocytes cultured for 12 days on 0.5 cm^2 polycarbonate filters (available from SkinEthic® Laboratories, Nice, France) in an amount of 10 μl. The tissue was treated for two days followed by separation of the epidermis from the polycarbonate filter and snap-frozen in liquid nitrogen. RNA was extracted from the cells and cDNA synthesized by conventional procedures. Quantitative real-time PCR (qPCR) was then performed using the following assays from Applied Biosystems: CAMP Hs0018038_ml and GAPDH Hs99999905_ml. The expression levels of cathelicidin were normalized to GAPDH and a relative quantification was made by comparison with Daivonex® ointment.

[3] = one study, M. Hannuksela et al. 1975; cited from earlier work

Compound | release of IL-1α [1] | effect on biological activity of calcipotriol (expression of cathelicidin) [2] | number of irritant reactions [3]
OCC(O)CO [glycerol] | reduce the release of IL-1α in a dose-dependent manner | potentiating the biological activity of calcipotriol | 
CC(O)CO (stereo not drawn) [propylene glycol] |  |  | 12.5%

From US9254296B2, “Pharmaceutical composition comprising vitamin D analogue and cosolvent-surfactant mixture” (LEO PHARMA A/S, priority 2009, dated 2016)
